Reference: patent US20240246935A1 (Plexium, Inc., priority 2021, published 2024)

Legend:
GSPT1 = GSPT1 (Homo sapiens (Human), UniProt P15170+Q96SW2); assay: GSPT1 reporter degradation assay (HEK293 hGSPT1 HiBiT-tagged cells); format: cell-based; conditions: 24 hour incubation
Protocol: HEK293_hGSPT1_HiBiT-tagged cells were generated using CRISPR-Cas12a technology. Briefly, ˜400,000 HEK293 cells were transiently co-transfected with precomplexed ribonuclear proteins (RNPs) consisting of 80 pmol of crRNA (IDT), 62 pmol of Cas12a protein (IDT), 3 μg of ssODN donor (IDT; AltR® modifications), 78 pmol of electroporation enhancer (IDT), and 200 ng of pMaxGFP (Lonza). The transfection was performed via nucleofection (Lonza, 4D-Nucleofector X-unit) using solution P3 and program CM-130 in a (20 μL) cuvette. Five days post-nucleofection, cells were single-cell-sorted for GFP+(transfected) cells by FACs in 96-well plates and clonally selected. Clones were screened and verified for the desired modification via targeted deep sequencing using gene-specific primers with partial Illumina adapter overhangs as previously described. In brief, clonal cell pellets were harvested, lysed, and used to generate gene-specific amplicons with partial Illumina adapters in PCR #1. Amplicons were indexed in PCR #2 and pooled with other targeted amplicons for other loci to create sequence diversity. Additionally, 10% PhiX sequencing control V3 (Illumina) was added to the pooled amplicon library prior to running the sample on a Miseq Sequencer System (Illumina) to generate paired 2×250 bp reads. Samples were demultiplexed using the index sequences, fastq files were generated, and NGS analysis was performed using CRIS.py. Final clones were authenticated using the PowerPlex fusion system (Promega) and tested negative for mycoplasma by the MycoAlert™Plus mycoplasma detection kit (Lonza).
Editing construct sequences and screening primers are outlined below (sequence from 5′ to 3′). hGSPT1Cas12acrRNA, CAGE635.GSPT1.g1: […] (SEQ ID NO: 4); CAGE635.g1.anti.ssODN: ttcctcacagtattgtgcagggtcatcaagaaaatgctta[…] CAGCCGCTCACgtcCttctctggaaccagtttcagaacttttccaattgcaatggtcttacctagaaatgaaattttaa (HiBiT tag and silent blocking modifications to prevent Cas12a recutting after integration are in upper case) (SEQ ID NO: 5); CAGE635.hGSPT1.DS.F: […] (SEQ ID NO: 6); CAGE635.hGSPT1.DS.R: GTGAA GTAGGCTTCTGCAGTC (SEQ ID NO: 7).
The GSPT1 degradation assay was carried out by harvesting the HEK 293T reporter cell lines and resuspending the cells in media formulated for reduced background fluorescence (FluoroBrite; Thermo Fisher). The respective cell lines were seeded at a density of 8,000 cells/well into white-opaque 384-well optical grade assay tissue culture plates (Greiner 781080-20). The cells were incubated overnight at 37° C. to allow for attachment to the assay plate. Dilutions of the compounds were prepared in DMSO from 10 mM compound stocks. Test compounds were added in a 10-point dilution series (typically 10 μM to […]) using a TECAN D300e Digital Dispenser with an upper limit of 0.5% final DMSO. Plates were centrifuged at 320×g for 2 minutes at room temperature, and subsequently incubated at 37° C.
After 24 hour incubation with the compounds, the plates were allowed to cool to room temperature for 10 minutes. 30 μL of HiBiT lytic buffer+1:50 HiBiT substrate Solution were added to each well. Plates were centrifuged at 320×g for 2 minutes at room temperature and then incubated with shaking at room temperature for 10 minutes covered with foil. Plates were read on a CLARIOstar microplate reader (BMG LabTech), measuring at 450 nm (donor emission) and 610 nm or 630 nm (acceptor emission). The DC50 values were determined by regression to best fit four-parameter logistic curves using GraphPad Prism.

IKZF2 (Helios) = assay: IKZF2 reporter degradation assay (HEK 293T IKZF2-mNeonGreen reporter cell line); format: cell-based, human; conditions: 1 μM compound, 24 hour incubation, HEK 293T IKZF2-mNeonGreen reporter
Method in brief: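 HEK 293T lines stably expressing each IKZF-GGGGS×3-mNeonGreen-P2A-mScarlet reporter, 4000 cells/well in FluoroBrite medium, treated with compound (≤0.5% DMSO) for 24 h at 37 °C. Imaging measured percent mNeonGreen-positive cells, with mScarlet used for segmentation; DC50 from four-parameter logistic fit.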

GSPT1, sequence (P15170 whole entry): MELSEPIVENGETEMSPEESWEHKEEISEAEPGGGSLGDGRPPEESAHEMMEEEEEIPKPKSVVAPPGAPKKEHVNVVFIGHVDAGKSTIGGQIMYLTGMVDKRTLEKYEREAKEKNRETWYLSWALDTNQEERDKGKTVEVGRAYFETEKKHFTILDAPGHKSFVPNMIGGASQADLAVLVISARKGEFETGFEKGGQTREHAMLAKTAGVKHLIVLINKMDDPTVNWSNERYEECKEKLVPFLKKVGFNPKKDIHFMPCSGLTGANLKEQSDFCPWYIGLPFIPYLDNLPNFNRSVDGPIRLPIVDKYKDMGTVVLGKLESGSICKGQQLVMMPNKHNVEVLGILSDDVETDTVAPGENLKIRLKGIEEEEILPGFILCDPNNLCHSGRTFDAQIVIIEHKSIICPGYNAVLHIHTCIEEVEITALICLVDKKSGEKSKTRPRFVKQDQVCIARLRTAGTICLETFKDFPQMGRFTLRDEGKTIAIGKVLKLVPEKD
GSPT1, sequence (Q96SW2 whole entry): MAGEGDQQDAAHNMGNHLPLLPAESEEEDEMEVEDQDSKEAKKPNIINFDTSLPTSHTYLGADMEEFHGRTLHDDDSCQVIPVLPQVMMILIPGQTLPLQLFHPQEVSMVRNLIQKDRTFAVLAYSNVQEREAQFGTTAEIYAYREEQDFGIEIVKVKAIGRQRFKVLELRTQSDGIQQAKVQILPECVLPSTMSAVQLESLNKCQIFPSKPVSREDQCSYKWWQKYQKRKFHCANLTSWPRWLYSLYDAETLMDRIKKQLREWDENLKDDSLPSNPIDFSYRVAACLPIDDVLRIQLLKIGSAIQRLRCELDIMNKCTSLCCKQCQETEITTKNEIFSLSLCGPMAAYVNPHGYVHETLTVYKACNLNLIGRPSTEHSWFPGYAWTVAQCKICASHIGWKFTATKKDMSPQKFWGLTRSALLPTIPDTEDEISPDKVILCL
GSPT1, sequence (Q16531 whole entry partner): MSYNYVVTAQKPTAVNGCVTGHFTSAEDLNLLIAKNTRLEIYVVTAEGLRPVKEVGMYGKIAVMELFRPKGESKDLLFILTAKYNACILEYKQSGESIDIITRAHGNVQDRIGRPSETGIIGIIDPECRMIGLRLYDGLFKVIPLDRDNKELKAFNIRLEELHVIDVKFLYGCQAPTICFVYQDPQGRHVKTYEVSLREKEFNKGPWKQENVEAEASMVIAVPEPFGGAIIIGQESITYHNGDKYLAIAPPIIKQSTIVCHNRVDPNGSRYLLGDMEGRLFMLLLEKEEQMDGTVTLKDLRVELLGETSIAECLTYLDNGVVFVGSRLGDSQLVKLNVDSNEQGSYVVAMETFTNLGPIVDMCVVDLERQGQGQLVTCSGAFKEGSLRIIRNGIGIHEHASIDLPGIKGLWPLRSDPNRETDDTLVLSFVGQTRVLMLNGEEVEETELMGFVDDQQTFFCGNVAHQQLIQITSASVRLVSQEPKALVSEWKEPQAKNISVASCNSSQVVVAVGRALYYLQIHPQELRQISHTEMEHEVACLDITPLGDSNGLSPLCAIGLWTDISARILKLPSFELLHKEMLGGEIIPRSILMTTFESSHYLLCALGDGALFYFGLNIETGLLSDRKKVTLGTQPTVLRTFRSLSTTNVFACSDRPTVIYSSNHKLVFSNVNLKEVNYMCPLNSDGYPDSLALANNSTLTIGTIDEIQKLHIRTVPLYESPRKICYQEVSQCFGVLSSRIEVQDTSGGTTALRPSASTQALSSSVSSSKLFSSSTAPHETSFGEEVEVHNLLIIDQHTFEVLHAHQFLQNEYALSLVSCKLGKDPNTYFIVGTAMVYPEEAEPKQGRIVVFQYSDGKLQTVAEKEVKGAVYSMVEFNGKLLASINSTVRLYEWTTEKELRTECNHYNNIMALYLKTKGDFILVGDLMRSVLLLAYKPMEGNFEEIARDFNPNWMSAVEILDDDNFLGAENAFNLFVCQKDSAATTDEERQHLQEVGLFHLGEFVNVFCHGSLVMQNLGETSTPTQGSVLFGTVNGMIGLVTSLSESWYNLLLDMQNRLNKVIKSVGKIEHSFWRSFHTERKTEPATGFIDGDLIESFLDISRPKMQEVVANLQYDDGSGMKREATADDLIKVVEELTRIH

| Structure (SMILES) | DC50 (GSPT1) | IKZF2 % Degradation @ 1 μM (IKZF2 (Helios)) |
| --- | --- | --- |
| N#Cc1cc(Cl)ccc1C1CN([C@@H]2CCCC[C@@H]2Oc2ccc3c(c2)CN(C2CCC(=O)NC2=O)C3=O)C1 (mixture of isomers) [Compound 100, Rac-5-chloro-2-(1-((cis)-2-((2-(2,6-dioxopiperidin-3-yl)-1-oxoisoindolin-5-yl)oxy)cyclohexyl)azetidin-3-yl)benzonitrile] | > 30 µM | <15% |
| O=C1CCC(N2Cc3cc(O[C@H]4CCCC[C@@H]4N4CC(c5ccc(F)cc5)C4)ccc3C2=O)C(=O)N1 (single isomer, unassigned) [Compound 50] | > 30 µM | 73.6% |
| O=C1CCC(N2Cc3cc(O[C@H]4CCCC[C@@H]4N4CC(c5ccccc5)C4)c(F)cc3C2=O)C(=O)N1 (single isomer, unassigned) [Compound 52] | > 30 µM | 90.5% |
| O=C1CCC(N2Cc3c(ccc(O[C@H]4CCCC[C@@H]4N4CC(c5ccccc5)C4)c3F)C2=O)C(=O)N1 (single isomer, unassigned) [Compound 65] | > 30 µM | 75.1% |
| O=C1CCC(N2Cc3c(ccc(O[C@H]4CCCC[C@@H]4N4CC(c5ccccc5)C4)c3F)C2=O)C(=O)N1 (single isomer, unassigned) [Compound 66] | > 30 µM | 74.8% |
| O=C1CCC(N2Cc3cc(O[C@H]4CCCC[C@@H]4N4CC(c5cccc(OC(F)(F)F)c5)C4)ccc3C2=O)C(=O)N1 (stereo partly drawn) [Compound 35, 3-(1-oxo-5-(((1S,2S)-2-(3-(3-(trifluoromethoxy)phenyl)azetidin-1-yl)cyclohexyl)oxy)isoindolin-2-yl)piperidine-2,6-dione] | > 30 µM | 84.6% |
| O=C1CCC(N2Cc3cc(O[C@H]4CCCC[C@@H]4N4CC(c5ccccc5OC(F)(F)F)C4)ccc3C2=O)C(=O)N1 (stereo partly drawn) [Compound 36, 3-(1-oxo-5-(((1S,2S)-2-(3-(2-(trifluoromethoxy)phenyl)azetidin-1-yl)cyclohexyl)oxy)isoindolin-2-yl)piperidine-2,6-dione] | > 30 µM | 82.3% |
| O=C1CCC(N2Cc3cc(O[C@H]4CCCC[C@@H]4N4CC(c5cccc(F)c5F)C4)ccc3C2=O)C(=O)N1 (stereo partly drawn) [Compound 64, 3-(5-(((1S,2S)-2-(3-(2,3-difluorophenyl)azetidin-1-yl)cyclohexyl)oxy)-1-oxoisoindolin-2-yl)piperidine-2,6-dione] | > 30 µM | 76.3% |

Further lines, with some results ahead:

| DC50 (GSPT1) | Structure (SMILES) | IKZF2 % Degradation @ 1 μM (IKZF2 (Helios)) |
| --- | --- | --- |
| > 30 µM | O=C1CCC(N2Cc3cc(O[C@H]4CCCC[C@@H]4N4CC(c5cccc(F)c5)C4)ccc3C2=O)C(=O)N1 (stereo partly drawn) [Compound 111, 3-(5-(((1S,2S)-2-(3-(3-fluorophenyl)azetidin-1-yl)cyclohexyl)oxy)-1-oxoisoindolin-2-yl)piperidine-2,6-dione] | 76.5% |
| > 30 µM | O=C1CCC(N2Cc3cc(O[C@H]4CCCC[C@@H]4N4CC(c5ccc(N6CCOCC6)cc5)C4)ccc3C2=O)C(=O)N1 (stereo partly drawn) [Compound 124, 3-(5-(((1S,2S)-2-(3-(4-morpholinophenyl)azetidin-1-yl)cyclohexyl)oxy)-1-oxoisoindolin-2-yl)piperidine-2,6-dione] | 70.2% |
| > 30 µM | O=C1CC[C@@H](N2Cc3cc(O[C@H]4CCCC[C@@H]4N4CC(c5ccccc5)C4)ccc3C2=O)C(=O)N1 [Compound 125, (R)-3-(1-oxo-5-(((1S,2S)-2-(3-phenylazetidin-1-yl)cyclohexyl)oxy)isoindolin-2-yl)piperidine-2,6-dione] | 83.2% |
| > 30 µM | O=C1CCC(N2Cc3cc(O[C@H]4CCCC[C@@H]4N4CC(c5ccccc5C(F)(F)F)C4)ccc3C2=O)C(=O)N1 (stereo partly drawn) [Compound 129, 3-(1-oxo-5-(((1S,2S)-2-(3-(2-(trifluoromethyl)phenyl)azetidin-1-yl)cyclohexyl)oxy)isoindolin-2-yl)piperidine-2,6-dione] | 83.8% |
| > 30 µM | O=C(O)CC(O)(CC(=O)O)C(=O)O.O=C1CCC(N2Cc3cc(O[C@H]4CCCC[C@@H]4N4CC(c5ccccc5)C4)ccc3C2=O)C(=O)N1 (stereo partly drawn) [Compound 130, 3-(1-oxo-5-(((1S,2S)-2-(3-phenylazetidin-1-yl)cyclohexyl)oxy)isoindolin-2-yl)piperidine-2,6-dione 2-hydroxypropane-1,2,3-tricarboxylate] | 84.8% |
| > 30 µM | O=C1CCC(N2Cc3cc(O[C@H]4CCCCC[C@@H]4N4CC(c5ccccc5)C4)ccc3C2=O)C(=O)N1 (stereo partly drawn) [Compound 131, 3-(1-oxo-5-(((1S,2S)-2-(3-phenylazetidin-1-yl)cycloheptyl)oxy)isoindolin-2-yl)piperidine-2,6-dione] | 92.3% |
| > 30 µM | O=C1CCC(N2Cc3cc(O[C@H]4CCCC[C@@H]4N4CC(c5ccc(O)cc5)C4)ccc3C2=O)C(=O)N1 (stereo partly drawn) [Compound 132, 3-(5-(((1S,2S)-2-(3-(4-hydroxyphenyl)azetidin-1-yl)cyclohexyl)oxy)-1-oxoisoindolin-2-yl)piperidine-2,6-dione] | 77.2% |
| > 30 µM | O=C1CCC(N2Cc3cc(O[C@H]4CCCC[C@@H]4N4CC(c5ccccc5O)C4)ccc3C2=O)C(=O)N1 (stereo partly drawn) [Compound 133, 3-(5-(((1S,2S)-2-(3-(2-hydroxyphenyl)azetidin-1-yl)cyclohexyl)oxy)-1-oxoisoindolin-2-1)piperidine-2,6-dione] | 56.4% |
| > 30 µM | O=C1CCC(N2Cc3cc(O[C@H]4CCCC[C@@H]4N4CC(c5cccc(O)c5)C4)ccc3C2=O)C(=O)N1 (stereo partly drawn) [Compound 134, 3-(5-(((1S,2S)-2-(3-(3-hydroxyphenyl)azetidin-1-yl)cyclohexyl)oxy)-1-oxoisoindolin-2-yl)piperidine-2,6-dione] | 75% |
